Results from US20250262188A1, “Methods of Increasing the Plasma Drug Exposure of Anticancer Agents” (Scandion Oncology A/S, priority 2021, published 2025).

What was measured:
UGT1A1 = target: T1, UGT1A1 (Homo sapiens, UniProt P22309); experiment: In vitro UGT1A1 inhibition, recombinant human enzyme assays (Example 5); assay type: biochemical
T1 sequence (P22309 26-533): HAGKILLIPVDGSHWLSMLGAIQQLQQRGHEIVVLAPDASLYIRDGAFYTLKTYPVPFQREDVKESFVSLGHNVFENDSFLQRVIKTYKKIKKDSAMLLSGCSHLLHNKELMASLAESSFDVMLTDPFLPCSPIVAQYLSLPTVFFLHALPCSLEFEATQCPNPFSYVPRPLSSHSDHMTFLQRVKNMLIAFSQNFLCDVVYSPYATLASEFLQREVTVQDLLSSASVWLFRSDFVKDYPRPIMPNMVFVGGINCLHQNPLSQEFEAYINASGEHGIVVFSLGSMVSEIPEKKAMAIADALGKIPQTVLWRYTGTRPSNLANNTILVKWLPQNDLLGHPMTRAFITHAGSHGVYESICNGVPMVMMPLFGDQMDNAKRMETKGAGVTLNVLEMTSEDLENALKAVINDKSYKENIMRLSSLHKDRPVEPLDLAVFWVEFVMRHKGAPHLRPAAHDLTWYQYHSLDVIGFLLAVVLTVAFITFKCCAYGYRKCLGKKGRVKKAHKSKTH
Text: The term “UGT1A1 inhibitor” as used herein refers to a molecule which is capable of binding to human uridine diphosphate (UDP)-glycuronosyl transferase (UGT1A1), particularly in humans or animals and decrease the enzymatic activity of the UGT1A1. […] Whether or not a particular molecule is an UGT1A1 inhibitor can be determined by examining the molecule's IC50 in vitro in a UGT1A1 inhibition assays known in the art.
The inhibition of UGT1A1 was investigated by recombinant human enzyme assays.

ABCG2 [1] = target: T2, ABCG2 (Homo sapiens, UniProt Q9UNQ0); experiment: Flux assays (dye-flux, bi-directional flux, 3H-SN38 accumulation, vesicular uptake) in colon cancer cells (Example 4); assay type: cell-based; settings: parental and SN38-resistant HT29 and LoVo cells
T2 construct: endogenous in cells; host or cells: HT29 and LoVo, parental and SN38-resistant
T2 sequence (Q9UNQ0 1-655): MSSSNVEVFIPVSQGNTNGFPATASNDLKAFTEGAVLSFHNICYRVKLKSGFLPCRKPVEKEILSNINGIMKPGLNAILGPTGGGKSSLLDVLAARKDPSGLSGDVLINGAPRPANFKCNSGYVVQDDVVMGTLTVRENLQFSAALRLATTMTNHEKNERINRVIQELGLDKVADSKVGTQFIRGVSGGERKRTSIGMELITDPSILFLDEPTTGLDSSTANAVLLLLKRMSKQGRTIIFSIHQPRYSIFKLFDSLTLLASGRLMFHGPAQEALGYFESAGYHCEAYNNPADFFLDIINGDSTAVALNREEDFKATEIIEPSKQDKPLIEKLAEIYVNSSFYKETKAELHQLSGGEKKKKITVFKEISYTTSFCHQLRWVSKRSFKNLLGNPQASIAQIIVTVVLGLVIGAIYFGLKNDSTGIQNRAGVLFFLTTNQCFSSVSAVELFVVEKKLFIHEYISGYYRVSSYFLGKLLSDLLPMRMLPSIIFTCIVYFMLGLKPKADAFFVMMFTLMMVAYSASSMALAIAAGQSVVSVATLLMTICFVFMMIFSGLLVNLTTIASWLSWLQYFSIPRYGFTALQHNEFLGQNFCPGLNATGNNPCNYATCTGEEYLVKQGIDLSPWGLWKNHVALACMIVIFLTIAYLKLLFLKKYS
Text: (§1) Pairs of parental (sensitive) and SN38-resistant human colon cancer cell lines (HT29 and LoVo) were used. ABCG2 overexpression and effects of SCO-101 on ABCG2 was investigated by western blot, qPCR, dye-flux assays, bi-directional flux assays, 3H-SN38 accumulation assays and vesicular uptake assays. The effect of SCO-101 on SN38 re-sensitization was investigated by cell viability assays (MTT/PrestoBlue) and clonogenic assays.

ABCG2 [2] = target: T2, ABCG2; experiment: Protein analysis of ABCG2 (western blot) in colon cancer cells (Example 4); assay type: cell-based
Text: as §1

[3] = test system: SN38-resistant human colon cancer cell lines (HT29 and LoVo); experiment: Cell viability (MTT/PrestoBlue) and clonogenic assays (Example 4); assay type: cell-based; settings: SN-38-resistant cells exposed to SCO-101 and SN-38
Text: as §1

BCRP = target: T3, BCRP (Homo sapiens, UniProt Q9UNQ0); experiment: 3H-SN-38 uptake in HT29 SN-38 resistant cell monolayers (Example 6); assay type: cell-based
T3 construct: endogenous in cells; host or cells: HT29 parental and HT29 SN38-resistant colorectal cancer cells
T3 sequence (Q9UNQ0 1-655): T2 sequence (Q9UNQ0 1-655)
Method: All treatments were investigated in three technical replicates (N=3). On the day of experimentation, the culture media was exchanged with 100 μL transport buffer (HBSS, 0.05% BSA, 10 mM HEPES, pH 7.4) and cells were incubated for 15 minutes at 37° C.
Subsequently, the blank transport buffer was exchanged with 50 μL transport buffer containing the different compounds (in 2x of the final concentration) to be tested and incubated for 15 minutes at 37° C. The uptake experiment was started by adding 50 μL of ^3H-SN38 at a concentration of 2 μCi/mL to all wells (the resulting concentration of ^3H-SN38 during the experiment was 1 μCi/mL). The uptake experiment was stopped after 15 minutes of incubation at 37° C. by removing the transport buffer from all wells.
The cell monolayers were subsequently washed twice by adding/removing ice-cold transport buffer twice and finally the cell monolayers were lysed by incubation in 100 μl of 0.1% TritonX-100 for 15 minutes at ambient temperature. Cell lysates were transferred to scintillation vials containing 2 mL of scintillation fluid (Ultima Gold, PerkinElmer). Each well was washed with 2×100 μL purified water (milliQ), which was also transferred to respective scintillation vials.

## O=C(Nc1cc(C(F)(F)F)cc(C(F)(F)F)c1)Nc1ccc(Br)cc1-c1nnn[nH]1 [SCO-101]
UGT1A1; read-out: IC50 towards UGT1A1
  IC50: ~100 nM
UGT1A1; recombinant human enzyme
  UGT1A1 inhibition (in words): potent inhibitor of UGT1A1
ABCG2 [1]
  Effect on the activity of ABCG2 in flux assays: inhibited the activity of ABCG2
ABCG2 [2]
  Effect on ABCG2 protein: causes degradation of ABCG2
[3]
  Effect on cell viability and colony formation of the combination with SN-38 compared to either drug alone: synergistic inhibitory effect
BCRP; 25 μM SCO-101, HT29 SN-38 resistant
  Uptake of SN-38 in the presence vs absence of SCO-101, all seeded cell densities: increased uptake
BCRP; 25 μM test compound, HT29 SN-38 resistant, ANOVA α=0.05
  Uptake of SN-38 relative to blank HBSS transport buffer control: significantly increased
BCRP; HT29 SN-38 res cell monolayers, read-out: Estimated EC50-value for increase in uptake of SN-38
  EC50: 9.8 µM
BCRP; SCO-101 100 to 0.5 μM, HT29 SN-38 resistant
  Uptake of SN-38 with increasing concentrations of SCO-101: concentration-dependent increase
